{
  "source": "patent US20020081731A1",
  "about": "“MANIPULATION OF PLANT CELL AND TISSUE CULTURES” (priority 1995, published 2002)",
  "test_system": "E. californica suspension subcultures",
  "assay": "Seed pretreatment, HPLC analysis of suspension subculture extracts",
  "type": "cell-based, Eschscholtzia californica",
  "details": "ungerminated seeds pretreated or not pretreated; T1 and T3 conditions; organic solvent extract of cell biomass",
  "description": "Ungerminated E. californica seeds were either pretreated by exposure to 5-azacytidine, or not pretreated. After uniform germination, callus induction and subculture, suspension initiation, and suspension subculture, the resulting suspension subcultures were subjected to T1 (control) and T3 conditions.",
  "data": [
    {"smiles": "Nc1ncn([C@@H]2O[C@H](CO)[C@@H](O)[C@H]2O)c(=O)n1", "note": "[5-azacytidine]", "values": [
      {"measurement": "size, number, and location of peaks in the chromatograms", "value": "significantly altered the size, number, and location of peaks"}
    ]}
  ]
}
